Measured values as given in patent US20080274892A1, “Novel Haloalkylsulfonanilide Derivative, Herbicide, and Method of Use Thereof” (priority 2005, published 2008).

Key:
[1] = system: false pimpernel; assay: Test Example 1: herbicidal efficacy on rice paddy weeds pre-emergence; type: in vivo, Lindernia pyxidaria; settings: 21 days
[2] = system: bulrush; assay: as above; type: in vivo, Scirpus juncoides; settings: 21 days
[3] = system: paddy rice plant (cultivar: Nihonbare); assay: Test Example 3: phytotoxicity test for transplanted paddy rice plant; type: in vivo; settings: transplanted rice, 21 days after treatment
Summary of the method: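 Clay loam soil was placed in a 75 cm^2 plastic pot and flooded to a water depth of 5 cm. Two Nihonbare paddy rice plants at the two-leaf stage were transplanted 1 cm deep and grown in a hot house. After treatment, pots stayed in the hot house for 21 days, and phytotoxicity was then graded against an untreated control.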

[4] = system: bulrush; assay: Test Example 2: herbicidal efficacy on rice paddy weeds post-emergence; type: in vivo, Scirpus juncoides; settings: post-emergence, one leaf stage, 21 days after treatment
[5] = system: false pimpernel; assay: as above; type: in vivo, Lindernia pyxidaria; settings: post-emergence, one leaf stage, 21 days after treatment
[6] = system: barnyard glass; assay: as above; type: in vivo, Echinochloa crus-galli; settings: dosage 1000 g/ha; post-emergence, one leaf stage; 21 days after treatment
Summary of the method: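 Plastic pots of 75 cm^2 were filled with clay loam soil and sown with barnyard glass and bulrush seeds, then topped with 75 cm^3 soil containing false pimpernel seeds. The pots were flooded to 5 cm water depth and held in a hot house. Twenty-one days after treatment, herbicidal efficacy was graded against an untreated control.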

[7] = system: transplanted paddy rice plant and Bulrush; assay: Test Example 5: selectivity between transplanted paddy rice plant and weeds; type: in vivo; settings: (highest dosage with no phytotoxicity to paddy rice)/(lowest dosage with effective level 4 on Bulrush); rice 3000-100 g/ha, Bulrush 300-10 g/ha; 21 days
Summary of the method: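 Transplanted paddy rice was treated at 3000, 1000, 300 and 100 g/ha active ingredient for phytotoxicity, and post-emergence bulrush at 300, 100, 30 and 10 g/ha. Plants were kept in a hothouse for 21 days. Growth inhibition versus untreated control was scored 0–4 (0%, 1–39%, 40–69%, 70–89%, 90–100%).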

[8] = system: bulrush; assay: Test Example 4: low dosage test for rice paddy weeds; type: in vivo, Scirpus juncoides; settings: 300 g/ha as an active ingredient; plants treated at the one leaf stage; 21 days after treatment; vs untreated control
Summary of the method: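 Bulrush sown in clay loam pots, flooded to 5 cm water in a hot house, treated at the one-leaf stage with formulated compound at 300 g/ha. Efficacy scored 0–4 against untreated control 21 days after treatment (4 = 90–100%, 0 = 0% inhibition).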

[9] = dosage 1000 g/ha, treated 5 days after transplantation

| SMILES | False pimpernel pre (herbicidal efficacy grade) ([1]; dosage 300 g/ha) | Bulrush pre (herbicidal efficacy grade) ([2]; dosage 300 g/ha) | melting point | Phytotoxicity to paddy rice ([3]; dosage 300 g/ha) | Bulrush post (herbicidal efficacy grade) ([4]; dosage 300 g/ha) | False pimpernel post (herbicidal efficacy grade) ([5]; dosage 300 g/ha) | False pimpernel pre (herbicidal efficacy grade) ([1]; dosage 1000 g/ha) | Bulrush pre (herbicidal efficacy grade) ([2]; dosage 1000 g/ha) | Burnyard grass post (herbicidal efficacy grade) [6] | Phytotoxicity to paddy rice [3, 9] | Bulrush post (herbicidal efficacy grade) ([4]; dosage 1000 g/ha) | False pimpernel post (herbicidal efficacy grade) ([5]; dosage 1000 g/ha) | Selective Index [7] | Herbicide effect to Bulrush [8] |
| --- | --- | --- | --- | --- | --- | --- | --- | --- | --- | --- | --- | --- | --- | --- |
| Cc1cn(Cc2ccccc2N(C(=O)OCC(C)C)S(=O)(=O)C(F)(F)F)c(=O)o1 [Compound No. 1-208, 3-{2-[N-(isobutoxycarbonyl)-N-(trifluoromethanesulfonyl)amino]benzyl}-5-methyl-4-oxazolin-2-one] | 4 (90%-100% of herbicidal efficacy or phytotoxicity) | 4 (90%-100% of herbicidal efficacy or phytotoxicity) | 60.3 to 68.6 °C | 0 (0% of herbicidal efficacy or phytotoxicity) | 4 (90%-100% of herbicidal efficacy or phytotoxicity) | 1 (1%-39% of herbicidal efficacy or phytotoxicity) |  |  |  |  |  |  |  |  |
| CC1(C)OC(=O)N(Cc2ccccc2NS(=O)(=O)C(F)(F)F)C1O (stereo not drawn) [Compound No. 1-194, 4-hydroxy-5,5-dimethyl-3-[2-(trifluoromethanesulfonylamino)benzyl]oxazolidin-2-one] |  |  | 88 to 92 °C |  |  |  |  |  |  |  |  |  |  |  |
| CCCC1(C)CN(Cc2ccccc2N(C(=O)OCC)S(=O)(=O)C(F)(F)F)C(=O)O1 (racemic) [1-127] |  |  |  |  |  |  | 4 (90%-100% of herbicidal efficacy or phytotoxicity) | 4 (90%-100% of herbicidal efficacy or phytotoxicity) | 4 (90%-100% of herbicidal efficacy or phytotoxicity) | 1 (1%-39% of herbicidal efficacy or phytotoxicity) | 4 (90%-100% of herbicidal efficacy or phytotoxicity) | 4 (90%-100% of herbicidal efficacy or phytotoxicity) | 30 | 4 (90%-100% of herbicidal efficacy or phytotoxicity) |
| CC(C)COC(=O)N(c1ccccc1CN1CC(C)(C(C)C)OC1=O)S(=O)(=O)C(F)(F)F (racemic) [1-102] |  |  |  |  |  |  | 4 (90%-100% of herbicidal efficacy or phytotoxicity) | 4 (90%-100% of herbicidal efficacy or phytotoxicity) | 4 (90%-100% of herbicidal efficacy or phytotoxicity) | 1 (1%-39% of herbicidal efficacy or phytotoxicity) | 4 (90%-100% of herbicidal efficacy or phytotoxicity) | 4 (90%-100% of herbicidal efficacy or phytotoxicity) | 10 | 4 (90%-100% of herbicidal efficacy or phytotoxicity) |
| CCC1(CC)CN(Cc2ccccc2NS(=O)(=O)C(F)(F)F)C(=S)O1 [1-178] |  |  |  |  |  |  | 4 (90%-100% of herbicidal efficacy or phytotoxicity) | 4 (90%-100% of herbicidal efficacy or phytotoxicity) | 4 (90%-100% of herbicidal efficacy or phytotoxicity) | 1 (1%-39% of herbicidal efficacy or phytotoxicity) | 4 (90%-100% of herbicidal efficacy or phytotoxicity) | 4 (90%-100% of herbicidal efficacy or phytotoxicity) | 10 | 4 (90%-100% of herbicidal efficacy or phytotoxicity) |
| COC(=O)N(c1ccccc1CN1CC(C)(C2CCCCC2)OC1=O)S(=O)(=O)C(F)(F)F (stereo not drawn) [1-157] |  |  |  |  |  |  | 4 (90%-100% of herbicidal efficacy or phytotoxicity) | 4 (90%-100% of herbicidal efficacy or phytotoxicity) | 4 (90%-100% of herbicidal efficacy or phytotoxicity) | 1 (1%-39% of herbicidal efficacy or phytotoxicity) | 4 (90%-100% of herbicidal efficacy or phytotoxicity) | 4 (90%-100% of herbicidal efficacy or phytotoxicity) | 3 | 3 (70%-89% of herbicidal efficacy or phytotoxicity) |
| CCCCOC(=O)N(c1ccccc1CN1CC(C)(C)OC1=O)S(=O)(=O)C(F)(F)F [1-63] |  |  |  |  |  |  | 4 (90%-100% of herbicidal efficacy or phytotoxicity) | 4 (90%-100% of herbicidal efficacy or phytotoxicity) | 4 (90%-100% of herbicidal efficacy or phytotoxicity) | 2 (40%-69% of herbicidal efficacy or phytotoxicity) | 4 (90%-100% of herbicidal efficacy or phytotoxicity) | 4 (90%-100% of herbicidal efficacy or phytotoxicity) | ≧30 | 4 (90%-100% of herbicidal efficacy or phytotoxicity) |
| CC(C)(C)COC(=O)N(c1ccccc1CN1CC(C)(C)OC1=O)S(=O)(=O)C(F)(F)F [1-66] |  |  |  |  |  |  | 4 (90%-100% of herbicidal efficacy or phytotoxicity) | 4 (90%-100% of herbicidal efficacy or phytotoxicity) | 4 (90%-100% of herbicidal efficacy or phytotoxicity) | 1 (1%-39% of herbicidal efficacy or phytotoxicity) | 4 (90%-100% of herbicidal efficacy or phytotoxicity) | 4 (90%-100% of herbicidal efficacy or phytotoxicity) | ≧30 | 4 (90%-100% of herbicidal efficacy or phytotoxicity) |
| CC1(C2(C)CN(Cc3ccccc3NS(=O)(=O)C(F)(F)F)C(=O)O2)CC1 (stereo not drawn) [1-167] |  |  |  |  |  |  | 4 (90%-100% of herbicidal efficacy or phytotoxicity) | 4 (90%-100% of herbicidal efficacy or phytotoxicity) | 4 (90%-100% of herbicidal efficacy or phytotoxicity) | 1 (1%-39% of herbicidal efficacy or phytotoxicity) | 4 (90%-100% of herbicidal efficacy or phytotoxicity) | 4 (90%-100% of herbicidal efficacy or phytotoxicity) | ≧10 | 4 (90%-100% of herbicidal efficacy or phytotoxicity) |
| CCC1CN(Cc2ccccc2NS(=O)(=O)C(F)(F)F)C(=O)O1 (stereo not drawn) [Compound No. 1-23, 5-ethyl-3-[2-(trifluoromethanesulfonylamino)benzyl]-2-oxazolidinone] |  |  |  |  |  |  | 4 (90%-100% of herbicidal efficacy or phytotoxicity) | 4 (90%-100% of herbicidal efficacy or phytotoxicity) | 4 (90%-100% of herbicidal efficacy or phytotoxicity) | 1 (1%-39% of herbicidal efficacy or phytotoxicity) | 4 (90%-100% of herbicidal efficacy or phytotoxicity) | 4 (90%-100% of herbicidal efficacy or phytotoxicity) | 10 | 4 (90%-100% of herbicidal efficacy or phytotoxicity) |
| CCCOC(=O)N(c1ccccc1CN1CC(C)(CC)OC1=O)S(=O)(=O)C(F)(F)F (stereo not drawn) [1-90] |  |  |  |  |  |  | 4 (90%-100% of herbicidal efficacy or phytotoxicity) | 4 (90%-100% of herbicidal efficacy or phytotoxicity) | 4 (90%-100% of herbicidal efficacy or phytotoxicity) | 3 (70%-89% of herbicidal efficacy or phytotoxicity) | 4 (90%-100% of herbicidal efficacy or phytotoxicity) | 4 (90%-100% of herbicidal efficacy or phytotoxicity) | 30 | 4 (90%-100% of herbicidal efficacy or phytotoxicity) |
| CC(C)C1CN(Cc2ccccc2NS(=O)(=O)C(F)(F)F)C(=O)O1 (stereo not drawn) [1-31] |  |  |  |  |  |  | 4 (90%-100% of herbicidal efficacy or phytotoxicity) | 4 (90%-100% of herbicidal efficacy or phytotoxicity) | 4 (90%-100% of herbicidal efficacy or phytotoxicity) | 1 (1%-39% of herbicidal efficacy or phytotoxicity) | 4 (90%-100% of herbicidal efficacy or phytotoxicity) | 4 (90%-100% of herbicidal efficacy or phytotoxicity) | ≧10 | 4 (90%-100% of herbicidal efficacy or phytotoxicity) |
